Columns and labels:
[1] = tested on: C. parapsilosis ATCC 22019; test: MIC, twofold serial microdilution; type: cell-based, Candida parapsilosis; conditions: C. parapsilosis ATCC 22019, 24 h, 35 °C
Description: (§1) The antimicrobial activity of the compounds was tested on Gram-positive bacteria (Staphylococcus aureus NCTC 4163, Staphylococcus aureus ATCC 25923, Staphylococcus aureus ATCC 6538, Staphylococcus aureus ATCC 29213, Staphylococcus epidermidis ATCC 12228, Staphylococcus epidermidis ATCC 35984), Gram-negative rods (Escherichia coli ATCC 10538, Escherichia coli ATCC 25922, Pseudomonas aeruginosa ATCC 15442, Pseudomonas aeruginosa ATCC 27863) and yeasts (Candida albicans ATCC 10231, Candida albicans ATCC 90028, Candida parapsilosis ATCC 22019). Hospital methicillin-resistant strains of Staphylococcus aureus and Staphylococcus epidermidis were obtained from the collection of the Department of Pharmaceutical Microbiology, Medical University of Warsaw, Poland.
(§2) Antifungal activities were assessed using Mueller–Hinton agar + 2% glucose and 0.5 µg/mL methylene blue dye medium. Sterile filter paper discs (9 mm diameter, Whatman Number 3 chromatography paper) were dripped with tested compound solutions (in dimethylsulfoxide, DMSO) to load 400 μg of a given compound per disc. Dry discs were placed on the surface of appropriate agar medium. The results (diameter of the growth inhibition zone) were read after 18 h of incubation at 35 °C. Minimal inhibitory concentration (MIC) was tested by the twofold serial microdilution method (in 96-well microtiter plates) using Mueller–Hinton broth medium (Beckton Dickinson) for bacteria or RPMI-1640 medium for Candida species, according to CLSI guidelines. The stock solution of tested agent was prepared in DMSO and diluted in sterile water. […] The final inoculum of all studied microorganisms was 10^5 CFU/ mL^−1 (colony forming units per ml). Minimal inhibitory concentrations (the lowest concentration of a tested agent that prevents visible growth of a microorganism) were read after 18 h (bacteria) or 24 h (yeasts) of incubation at 35 °C.

[2] = tested on: HaCaT (human immortal keratinocyte cell line); test: MTT cytotoxicity assay, HaCaT; type: cell-based; conditions: HaCaT normal cells, 72 h
Description: The human primary (SW480), metastatic (SW620) colon cancer, metastatic prostate cancer (PC3) and human immortal keratinocyte (HaCaT) cell lines were purchased from the American Type Culture Collection (ATCC, Rockville, USA). The cells were cultured in medium according to protocols (MEM for SW480 and SW620, RPMI 1640 for PC3 and DMEM for HaCaT cells) supplemented with 10% fetal bovine serum (FBS), penicillin (100 U/mL) and streptomycin (100 μg/mL) and cultured in 37 °C/ 5% CO2 humidified incubator. The cells were cultured until appropriate confluence was achieved (80–90%). Next, they were harvested by treatment with 0.25% trypsin (Gibco Life Technologies, USA) and used for studies.
Cells without studied compounds in medium were used as a control.
The cell viability was assessed by determination of MTT salt (3-(4,5-dimethylthiazol-2-yl)-2,5-diphenyltetrazolium bromide) conversion by mitochondrial dehydrogenase. MTT assay was performed as previously described. Experiments were repeated three times. Cell viability was presented as a percentage of MTT reduction in the treated cells versus the control cells. Number of viable cells cultured without studied compounds was assumed to be 100%. Decreased relative MTT level means decreased cell viability. Thiourea complexes with the highest cytotoxic potential assessed by MTT determination (with the lowest IC50) were chosen for subsequent assessments of cytotoxicity mechanisms.

P. aeruginosa ATCC 15442 = test: MIC, twofold serial microdilution; type: cell-based, Pseudomonas aeruginosa; conditions: P. aeruginosa ATCC 15442, 18 h, 35 °C
Description: as §1, §2

P. aeruginosa ATCC 27853 = test: MIC, twofold serial microdilution; type: cell-based, Pseudomonas aeruginosa; conditions: P. aeruginosa ATCC 27853, 18 h, 35 °C
Description: as §1, §2

C. albicans ATCC 10231 = test: MIC, twofold serial microdilution; type: cell-based, Candida albicans; conditions: C. albicans ATCC 10231, 24 h, 35 °C
Description: as §1, §2

C. albicans ATCC 90028 = test: MIC, twofold serial microdilution; type: cell-based, Candida albicans; conditions: C. albicans ATCC 90028, 24 h, 35 °C
Description: as §1, §2

[3] = tested on: Bacillus subtilis H17 (rec+); test: Bacillus subtilis rec-assay, H17; type: cell-based; conditions: B. subtilis H17; 256 µg per disc (NOQ 2 µg per disc)
Description: DNA-damaging activity of compounds was tested by rec-assay using two genetically modified Bacillus subtilis strains: M45 (rec^−) and H17 (rec^+). Tested compounds were dissolved in DMSO, and 10 µL of each solution was dripped onto sterile cotton discs (Rotilabo) to load 256 µg of a given compound per 9 mm disc. Discs were placed on the surface nutrient agar plates (Difco), inoculated with 100 µL of bacterial overnight culture and incubated […] at 35 °C. After incubation, the growth inhibition zones were measured. […] Results of the genotoxicity test were estimated after 18 h of incubation at 35 °C by comparing the diameter of the inhibition zone on the B. subtilis M45 (rec^−) strain with that on the B. subtilis H17 (rec^+) strain.

[4] = tested on: S. epidermidis ATCC 35984; test: MIC, twofold serial microdilution; type: cell-based, Staphylococcus epidermidis; conditions: S. epidermidis ATCC 35984, 18 h, 35 °C
Description: as §1, §2

[5] = tested on: S. epidermidis ATCC 12228; test: MIC, twofold serial microdilution; type: cell-based, Staphylococcus epidermidis; conditions: S. epidermidis ATCC 12228, 18 h, 35 °C
Description: as §1, §2

S. epidermidis 515 = test: MIC, hospital MRSE strain; type: cell-based, Staphylococcus epidermidis; conditions: hospital MRSE S. epidermidis 515
Description: as §1, §2

S. epidermidis 510 = test: MIC, hospital MRSE strain; type: cell-based, Staphylococcus epidermidis; conditions: hospital MRSE S. epidermidis 510
Description: as §1, §2

S. epidermidis 423 = test: MIC, hospital MRSE strain; type: cell-based, Staphylococcus epidermidis; conditions: hospital MRSE S. epidermidis 423
Description: as §1, §2

S. epidermidis 432 = test: MIC, hospital MRSE strain; type: cell-based, Staphylococcus epidermidis; conditions: hospital MRSE S. epidermidis 432
Description: as §1, §2

S. epidermidis 433 = test: MIC, hospital MRSE strain; type: cell-based, Staphylococcus epidermidis; conditions: hospital MRSE S. epidermidis 433
Description: as §1, §2

S. epidermidis 420 = test: MIC, hospital MRSE strain; type: cell-based, Staphylococcus epidermidis; conditions: hospital MRSE S. epidermidis 420
Description: as §1, §2

S. epidermidis 511 = test: MIC, hospital MRSE strain; type: cell-based, Staphylococcus epidermidis; conditions: hospital MRSE S. epidermidis 511
Description: as §1, §2

S. epidermidis 431 = test: MIC, hospital MRSE strain; type: cell-based, Staphylococcus epidermidis; conditions: hospital MRSE S. epidermidis 431
Description: as §1, §2

S. epidermidis 513 = test: MIC, hospital MRSE strain; type: cell-based, Staphylococcus epidermidis; conditions: hospital MRSE S. epidermidis 513
Description: as §1, §2

Compound	MIC [1] [µg/mL]	IC50 [2] [µM]	MIC (P. aeruginosa ATCC 15442) [µg/mL]	MIC (P. aeruginosa ATCC 27853) [µg/mL]	MIC (C. albicans ATCC 10231) [µg/mL]	MIC (C. albicans ATCC 90028) [µg/mL]	inhibition zone diameter [3] [mm]	MIC [4] [µg/mL]	MIC [5] [µg/mL]	MIC (S. epidermidis 515) [µg/mL]	MIC (S. epidermidis 510) [µg/mL]	MIC (S. epidermidis 423) [µg/mL]	MIC (S. epidermidis 432) [µg/mL]	MIC (S. epidermidis 433) [µg/mL]	MIC (S. epidermidis 420) [µg/mL]	MIC (S. epidermidis 511) [µg/mL]	MIC (S. epidermidis 431) [µg/mL]	MIC (S. epidermidis 513) [µg/mL]
O=[N+]([O-])c1cc([N+]2=C(Nc3ccccc3F)[S][Cu-2]23[S]C(Nc2ccccc2F)=[N+]3c2ccc(Cl)c([N+](=O)[O-])c2)ccc1Cl [Compound 7, Copper (II) complex with 1-(2-fluorophenyl)-3-(4-chloro-3-nitrophenyl)thiourea]	128	138 ± 4.4	>256	128	128	128	15	32	32	8	8	8	8	8	8	8	8	8
O=[N+]([O-])c1cc([N+]2=C(Nc3ccc(I)cc3)[S][Cu-2]23[S]C(Nc2ccc(I)cc2)=[N+]3c2ccc(Cl)c([N+](=O)[O-])c2)ccc1Cl [Compound 8, Copper (II) complex with 1-(4-iodophenyl)-3-(4-chloro-3-nitrophenyl)thiourea]	64	103 ± 3.4	128	128	64	128	14	4	8	8	8	8	8	4	8	8	8	8
